Measured values as given in patent publication US9486447B2, “Compositions and methods for controlling neuronal excitation” (The General Hospital Corporation, priority 2011, dated 2016).
“Also recorded” adds a separate entry of the source.

Key:
[1] = test system: zebrafish embryos; assay: Zebrafish behavioral assay (light-dependent motor excitation, excitation score); type: in vivo; details: for behavioral excitation (activity of optovin analogs) / light-dependent motor excitation in vivo: 10 μM; for behavioral excitation (activity of optovin analogs): n=5, FIG. 2A; for light-dependent motor excitation in vivo: n=3, FIG. 4H
Protocol: To identify small molecules for the optical control of endogenous channels, a screen was conducted for compounds that could drive light-dependent motor behaviors in wild-type zebrafish. Zebrafish embryos are particularly well suited for phenotype based chemical screens^28,29. They are blind for the first 3 days of development and other than a one-time motor response to the first light exposure in dark-adapted animals (the photomotor response, PMR), zebrafish embryos are unresponsive to light^31,30 (FIG. 1A). A library of 10,000 structurally diverse synthetic small molecules was screened for compounds that render zebrafish embryos responsive to light. Behavioral responses were measured for each well in comparison to a set of 2,500 DMSO treated controls. This screen identified a single compound, optovin, that increased motor activity greater than 40 standard deviations above the control mean (FIGS. 1A-1C).
A large number of fertilized eggs (up to 5,000 embryos per day) were collected from group mating of Ekkwill or TuAB zebrafish. Embryos were raised in HEPES (10 mM) buffered E3 media in a dark incubator at 28° C. until […]. Groups of ˜8 embryos (28 hpf) were distributed into the wells of flat bottom black-walled 96 well plates filled with E3 media (360 μl). Embryos were then incubated in a dark incubator 25° C. for chemical treatment and subsequent experiments.
The Tim Tec ACTIPROBEβ library contains 10,000 compounds dissolved in DMSO at a stock concentration of 1 mg/ml (˜3 mM). The Tim Tec library was screened at a 1:300 dilution in E3 buffer for a final concentration of ˜10 μM. Negative controls were treated with an equal volume of DMSO. Stock solutions were added directly to zebrafish in the wells of a 96 well plate, mixed, and allowed to incubate for 2-10 hours in the dark prior to behavioral evaluation in the PMR assay. The Tim Tec library (10,000 compounds) was purchased from the Tim Tec corporation (Newark, Del.). The Neurotransmitter Library (700 compounds; cat #2810) was purchased from Biomol International. Reordered hit compounds were dissolved in DMSO and added to wells as described above.
Animals were exposed to a two pulse stimulus train with a 10 s inter-stimulus interval. Exposure to the first pulse was used to trigger the photomotor response, which has a refractory phase of approximately 10 minutes. […] In a typical assay, 1000 frames of digital video were recorded at 33 fps using a Hamamatsu ORCA-ER camera mounted on a Nikon TE200 microscope with a 1× objective. Instrument control and data measurement were performed using custom scripts for Metamorph Software (Molecular Devices). Each video was saved for review. Light stimuli were generated with a 300-watt xenon bulb housed in a Sutter Lambda LS illuminator and delivered to the well 10 s and 20 s after the start of each video. A cold mirror (reflectance between 300 nm and 700 nm) on the Sutter illuminator was used to block wavelengths outside of this range. Light intensity was measured using a PM100D power meter attached to a S120VC photodiode power sensor (Thorlabs). Where indicated, filters were used to restrict the excitation light to the indicated wavelengths.
To analyze digital video recordings, custom software scripts were used to automatically draw six evenly spaced line segments across each well such that each embryo is likely to be crossed by one of the lines. The software then tracks the average intensity of the pixels for each segment over time. As the embryos move, the light intensity at some of the pixels changes. The motion index was calculated by taking the total absolute difference in pixel intensity between frames. This motion index correlates with the overall amount of motion in the well, both in terms of contraction frequency and number of animals in motion. Behavioral features are quantified by ‘excitation scores’ that are calculated by taking the 75th percentile of the motion index for 3-5 s following the light stimulus. […]

[2] = test system: dorsal root ganglia (DRG) sensory neurons; assay: Calcium imaging of DRG sensory neurons; type: cell-based, mouse; details: 100 μM mustard oil
Protocol: To determine if optovin acts on sensory neurons, the activity of treated and untreated dorsal root ganglia (DRG) sensory neurons isolated from wild type mice were compared. […] TRPA1 channels play important roles in detecting chemical, thermal, and mechanical stimuli in a variety of organisms^34,35.
C57Bl/6 male mice (3-4 weeks old) were decapitated and DRG were dissected into 4° C. Hank's Balanced Salt Solution (HBSS; Gibco), then neurons were dissociated using collagenase (1 mg/mL; Worthington) and dispase (5 mg/mL; Gibco) dissolved in HBSS. Neurons were plated in Neurobasal-A medium (Invitrogen), supplemented with B-27 Supplement (Gibco), L-glutamine (Gibco), and penicillin-streptomycin (Gibco). The neurons were plated onto coverslips coated with 0.1 mg/mL poly-D-lysine (Sigma) and 5 μg/mL laminin (Sigma). After 24 h, neurons were washed with assay buffer (HBSS, supplemented with 9 mM HEPES, 11 mM D-glucose, 0.1% fatty-acid free BSA, pH 7.3) and incubated for 1 h with 2 μM Fura2-AM (Invitrogen) with 0.2% pluronic (Invitrogen) in assay buffer in the dark at room temperature. The neurons were then washed with assay buffer and allowed to equilibrate at room temperature for 30 min prior to imaging. After a 120 s baseline perfusion of assay buffer containing 3.3% DMSO, 100 μM optovin dissolved in the DMSO-assay buffer solution, or the DMSO-assay buffer solution alone as a control, was perfused onto the neurons for a period of 1 min. Fura-2 is activated with UV-light, and the process of imaging Fura-2 was enough to activate the optovin. […] Following this one-minute period, cells were perfused with DMSO-assay buffer to remove the agonist, which was followed by addition of 100 μM mustard oil (in DMSO-assay buffer) to determine the total number of TrpA1-expressing neurons present. Images were acquired on a Nikon Eclipse Ti microscope (Nikon, Melville, N.Y.).

SMILES | behavioral excitation (activity of optovin analogs) [1] | other results
CN(C)c1ccc(C=C2SC(=S)NC2=O)cc1 [6c7] | Neither analog retains activity; also recorded: inactive | –
Cc1cc(/C=C2/SC(=S)NC2=O)c(C)n1C [6c1] | bioactive; also recorded: active | lowest effective dose ([1]; zebrafish, in vivo): 300 nM; lowest effective dose, fold lower than optovin ([1]; zebrafish, in vivo): 10 ×
C=CCN=C=S [mustard oil, reference compound] | – | response of optovin responsive DRG neurons to mustard oil [2]: responded to mustard oil
CCN1C(=O)C(=Cc2cc(C)n(-c3cccnc3)c2C)SC1=S [6c3] | abrogate the optovin response; also recorded: inactive | –
Cc1cc(/C=C2/SC(=S)NC2=O)c(C)n1-c1ccccc1 [6b8] | bioactive; also recorded: active | –
COc1cc(C(C)=C2SC(=S)NC2=O)ccc1O [7d1] | – | light-dependent motor excitation in vivo [1]: does not cause light dependent motor activity
O=C1CSC(=S)N1 [6c5] | Neither analog retains activity; also recorded: inactive | –
Cc1cc(/C=C2/NC(=O)NC2=O)c(C)n1-c1cccnc1 [6c4] | retains optovin activity | –
COc1ccc(/C=C2/SC(=S)NC2=O)cc1O [7c7] | – | light-dependent motor excitation in vivo [1]: cause light-dependent motor excitation
C1CN2CCN1CC2 [DABCO, 1,4-diazabicyclo[2.2.2]octane, reference compound] | – | effect on other light elicited behaviors (PMR) ([1]; co-treatment with optovin): not affect other light elicited behaviors; suppression of the optovin response in vivo ([1]; co-treatment with optovin): completely suppress the optovin response
Cc1cc(C=C2SC(=O)NC2=O)c(C)n1-c1cccnc1 [6c2] | abrogate the optovin response; also recorded: inactive | –
